Tests used:
[1] = from cited literature (Storlien et al., Brindley et al., Carr et al., Duhault et al., Pestell et al.); cited from earlier work
rat âgé = assay: Chronic treatment of the aged rat (insulin resistance, hyperinsulinaemia, raised blood pressure): blood pressure; type: in vivo
Description: 2- Etude du traitement chronique du rat âgé
Au cours du vieillissement, une insulino-résistance apparaît, accompagnée d'une hyperinsulinémie et d'une élévation de la pression artérielle (cf tableau 1 ci-après).
Le traitement par la d-fenfluramine à la dose de 2,5 mg/kg 2 fois par jour pendant 3 semaines, diminue la pression artérielle du rat âgé de 12.10² Pa sans modifier celle du rat jeune.

réactivité vasculaire = assay: Vascular reactivity after chronic treatment of the aged rat: maximum contraction to serotonin and ADP; type: in vivo; settings: 12-month rats treated with d-fenfluramine
From the text: Cet effet est relié à une normalisation de la réactivité vasculaire, en particulier à la sérotonine et à l'ADP (cf tableau 2 ci-après).

Structure (SMILES): CCNC(C)Cc1cccc(C(F)(F)F)c1 (racemic) [dl fenfluramine]
- insulino-résistance et hyperinsulinémie basale [1]: capables de réduire l'insulino-résistance et l'hyperinsulinémie basale

Structure (SMILES): CC(Cc1cccc(C(F)(F)F)c1)NCCOC(=O)c1ccccc1 (centres unmarked) [benfluorex]
- Blood pressure and vascular reactivity of the aged rat (results compared with d-fenfluramine) (rat âgé; 50 mg/kg, 5 times per day): résultats analogues

Structure (SMILES): CCN[C@@H](C)Cc1cccc(C(F)(F)F)c1 [d-fenfluramine]
- pression artérielle du rat jeune (rat âgé; young rat, 2,5 mg/kg twice daily for 3 weeks): sans modifier
- Maximum de contraction Sérotonine (réactivité vasculaire; expressed relative to KCl = 100 % contraction): 145%
- Maximum de contraction ADP (réactivité vasculaire; expressed relative to phenylephrine = 100 % contraction): 66%
